Measured values: paper PMC4990313, “Biocatalytic Asymmetric Alkene Reduction: Crystal Structure and Characterization of a Double Bond Reductase from Nicotiana tabacum” (ACS Catalysis, 2013)

Key:
[1] = biological target: T1, NtDBR (double bond reductase) (Nicotiana tabacum, UniProt Q9SLN8); test: X-ray crystal structure (ternary complex, soak); format: binding
T1 construct: gene DBR; full-length, C-terminal His6-tag

[2] = biological target: T1, NtDBR (double bond reductase); test: steady-state kinetics, NADPH oxidation; substrate inhibition at pH […]; format: biochemical
[3] = biological target: T1, NtDBR (double bond reductase); test: steady-state kinetics, NADPH oxidation; biotransformation with GC; format: biochemical
[4] = biological target: T1, NtDBR (double bond reductase); test: steady-state kinetics, NADPH oxidation; rate at pH […]; format: biochemical
[5] = biological target: T1, NtDBR (double bond reductase); test: X-ray crystal structure (ternary complex, soak); some reduction in biotransformation; format: binding
[6] = biological target: T1, NtDBR (double bond reductase); test: steady-state kinetics, NADPH oxidation; kcat/Km at pH […]; format: biochemical
[7] = biological target: T1, NtDBR (double bond reductase); test: X-ray crystal structure (binary complex, NADPH soak); steady-state kinetics; format: binding

T1 sequence (Q9SLN8 whole entry): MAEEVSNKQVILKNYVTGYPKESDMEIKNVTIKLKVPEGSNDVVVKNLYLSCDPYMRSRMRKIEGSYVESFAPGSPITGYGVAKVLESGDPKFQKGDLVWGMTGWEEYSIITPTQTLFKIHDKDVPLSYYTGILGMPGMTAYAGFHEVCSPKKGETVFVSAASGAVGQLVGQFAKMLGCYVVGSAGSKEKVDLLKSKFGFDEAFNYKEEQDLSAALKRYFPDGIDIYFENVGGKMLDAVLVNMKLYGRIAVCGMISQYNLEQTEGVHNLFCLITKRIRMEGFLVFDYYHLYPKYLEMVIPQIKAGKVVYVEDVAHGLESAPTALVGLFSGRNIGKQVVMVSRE

Structure (SMILES): NC(=O)c1ccc[n+]([C@@H]2O[C@H](COP(=O)(O)OP(=O)(O)OC[C@H]3O[C@@H](n4cnc5c(N)ncnc54)[C@H](OP(=O)(O)O)[C@@H]3O)[C@@H](O)[C@H]2O)c1 [NADP^+]
- X-ray crystal structure (ternary complex, soak) [1]: showed clear |Fo| – |Fc| electron density for the presence of NADP^+ and a second ligand in subunit A only

Structure (SMILES): CCC=C(C)C=O [2a, 2-methylpentenal]
- Ki [2]: 2.6 ± 0.6 mM

Structure (SMILES): O=[N+]([O-])C1=CCCCC1 [1a, 1-nitrocyclohexene]
- steady-state kinetics, NADPH oxidation; biotransformation with GC [3]: NtDBR shows a high preference for 1-nitrocyclohexene (1a) over typical LTD alkenal/one substrates

Structure (SMILES): CCCCCC/C=C/C=O [4a, trans-2-nonenal]
- steady-state kinetics, NADPH oxidation; rate at pH 7.3 [4]: 0.87 ± 0.07 s^–1

Structure (SMILES): COc1cc(C=CC=O)ccc1O [9a, 4-hydroxy-3-methoxycinnamaldehyde]
- X-ray crystal structure (ternary complex, soak); some reduction in biotransforma [5]: have modeled in HMCA because this was the compound soaked into the crystals

Structure (SMILES): O=C/C=C/c1ccccc1 [6a, trans-cinnamaldehyde]
- steady-state kinetics, NADPH oxidation; kcat/Km at pH 5.4 [6]: 2.8

Structure (SMILES): NC(=O)C1=CN([C@@H]2O[C@H](COP(=O)(O)OP(=O)(O)OC[C@H]3O[C@@H](n4cnc5c(N)ncnc54)[C@H](OP(=O)(O)O)[C@@H]3O)[C@@H](O)[C@H]2O)C=CC1 [NADPH]
- X-ray crystal structure (binary complex, NADPH soak); steady-state kinetics [7]: Both the binary and ternary crystal structures showed clear |Fo| – |Fc| electron density for the NADP(H)

Structure (SMILES): C=CC(=O)CCCCC [5a, 1-octen-3-one]
- steady-state kinetics, NADPH oxidation; rate at pH 7.3 [4]: 0.52 ± 0.03 s^–1
